# Laboratory results reported in patent US10131652B2, “Pyrimidinyloxy benzene derivatives as herbicides” (E. I. DU PONT DE NEMOURS AND COMPANY, priority 2014, dated 2018).
# Legend:
# Assay type in all cases: in vivo
# [1] = test system: Italian ryegrass (Lolium multiflorum); assay: Test B pre-/postemergence plant response
# In short: (§1)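 Evaluation is visual, about 10 days after application, rating injury from 0 (none) to 100 (complete control) relative to untreated controls. Application was a preemergence soil spray on seeded pots or a postemergence spray on one- to two-leaf plants.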
# kochia (Kochia scoparia) = assay: Test B pre-/postemergence plant response
# In short: as §1
# [2] = test system: ragweed (common ragweed, Ambrosia elatior); assay: Test B pre-/postemergence plant response
# In short: as §1
# [3] = test system: Italian ryegrass (Lolium multiflorum); assay: Test D pre-/postemergence plant response
# In short: (§2)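 Visual rating, 0–100 scale (0 = no effect, 100 = complete control), versus untreated controls 13 to 15 days after treatment in greenhouse. Preemergence: seeds in loam/sand soil. Postemergence: 2 to 18 cm plants, 1- to 4-leaf stage, peat-based medium. Compounds formulated in non-phytotoxic solvent plus surfactant.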
# [4] = test system: barnyardgrass (Echinochloa crus-galli); assay: Test D pre-/postemergence plant response
# In short: as §2
# [5] = test system: blackgrass (Alopecurus myosuroides); assay: Test D pre-/postemergence plant response
# In short: as §2
# corn (Zea mays) = assay: Test D pre-/postemergence plant response
# In short: as §2
# [6] = test system: galium (catchweed bedstraw, Galium aparine); assay: Test D pre-/postemergence plant response
# In short: as §2
# [7] = test system: giant foxtail (Setaria faberii); assay: Test D pre-/postemergence plant response
# In short: as §2
# [8] = test system: large (Lg) crabgrass (Digitaria sanguinalis); assay: Test D pre-/postemergence plant response
# In short: as §2
# [9] = test system: oilseed rape (Brassica napus); assay: Test D pre-/postemergence plant response
# In short: as §2
# [10] = test system: pigweed (Amaranthus retroflexus); assay: Test D pre-/postemergence plant response
# In short: as §2
# [11] = test system: ragweed (common ragweed, Ambrosia elatior); assay: Test D pre-/postemergence plant response
# In short: as §2
# [12] = test system: yellow nutsedge (Cyperus esculentus); assay: Test D pre-/postemergence plant response
# In short: as §2
# [13] = 125 g ai/ha, postemergence, 0 to 100 scale, 0 no effect, 100 complete control
# [14] = Postemergence, 500 g ai/ha, 0 to 100 scale (0 no effect, 100 complete control)
# [15] = Preemergence, 125 g ai/ha, 0 to 100 scale (0 no effect, 100 complete control)
# [16] = Preemergence, 500 g ai/ha, 0 to 100 scale where 0 is no effect and 100 is complete control
# [17] = Postemergence, 31 g ai/ha, scale 0 to 100 (0 no effect, 100 complete control)
# [18] = Postemergence, 62 g ai/ha, scale 0 to 100, 0 no effect, 100 complete control
# [19] = Postemergence, 125 g ai/ha, scale 0 to 100, 0 no effect, 100 complete control
# [20] = Preemergence, 16 g ai/ha, scale 0 to 100 (0 no effect, 100 complete control)
# [21] = Preemergence, 31 g ai/ha, scale 0 to 100 (0 no effect, 100 complete control)
# [22] = Preemergence, 62 g ai/ha, scale 0 to 100 (0 no effect, 100 complete control)
smiles,measurement,setting,value
FC(F)c1cc(-c2c(Cl)cccc2Oc2ncc(Cl)cn2)no1 [Compound 179],"Plant response rating, Ryegrass, Italian",[1]; [13],90
same,"Plant response rating, Ryegrass, Italian",[1]; [14],100
same,"Ryegrass, Italian plant response rating",[1]; [15],20
same,"Plant response rating, Ryegrass, Italian",[1]; [16],40
same,"Plant response rating, Kochia",kochia (Kochia scoparia); [13],90
same,"Plant response rating, Kochia",kochia (Kochia scoparia); [14],100
same,Kochia plant response rating,kochia (Kochia scoparia); [15],100
same,"Plant response rating, Kochia",kochia (Kochia scoparia); [16],100
same,"Plant response rating, Ragweed",[2]; [13],10
same,"Plant response rating, Ragweed",[2]; [14],30
same,Ragweed plant response rating,[2]; [15],10
same,"Plant response rating, Ragweed",[2]; [16],40
same,"Plant response rating (scale 0 to 100), Ryegrass, Italian","[3]; Postemergence, 16 g ai/ha",0
same,"Ryegrass, Italian plant response rating",[3]; [17],5
same,"Ryegrass, Italian plant response rating",[3]; [18],5
same,"Plant response rating, Ryegrass, Italian",[3]; [19],20
same,"Plant response rating (scale 0 to 100), Ryegrass, Italian","[3]; Preemergence, 125 g ai/ha",80
same,"Plant response rating, Ryegrass, Italian",[3]; [20],0
same,"Plant response rating, Ryegrass, Italian",[3]; [21],5
same,"Plant response rating, Ryegrass, Italian",[3]; [22],15
same,"Plant response rating (scale 0 to 100), Barnyardgrass","[4]; Postemergence, 16 g ai/ha",0
same,Barnyardgrass plant response rating,[4]; [17],0
same,"Plant response rating, Barnyardgrass",[4]; [18],5
same,"Plant response rating, Barnyardgrass",[4]; [19],5
same,"Plant response rating (scale 0 to 100), Barnyardgrass","[4]; Preemergence, 125 g ai/ha",35
same,"Plant response rating, Barnyardgrass",[4]; [20],0
same,"Plant response rating, Barnyardgrass",[4]; [21],5
same,"Plant response rating, Barnyardgrass",[4]; [22],15
same,"Plant response rating (scale 0 to 100), Blackgrass","[5]; Postemergence, 16 g ai/ha",5
same,Blackgrass plant response rating,[5]; [17],5
same,"Plant response rating, Blackgrass",[5]; [18],15
same,"Plant response rating, Blackgrass",[5]; [19],20
same,"Plant response rating (scale 0 to 100), Blackgrass","[5]; Preemergence, 125 g ai/ha",80
same,"Plant response rating, Blackgrass",[5]; [20],0
same,"Plant response rating, Blackgrass",[5]; [21],30
same,"Plant response rating, Blackgrass",[5]; [22],45
same,"Plant response rating (scale 0 to 100), Corn","corn (Zea mays); Postemergence, 16 g ai/ha",5
same,Corn plant response rating,corn (Zea mays); [17],10
same,"Plant response rating, Corn",corn (Zea mays); [18],10
same,"Plant response rating, Corn",corn (Zea mays); [19],15
same,"Plant response rating (scale 0 to 100), Corn","corn (Zea mays); Preemergence, 125 g ai/ha",5
same,"Plant response rating, Corn",corn (Zea mays); [20],0
same,"Plant response rating, Corn",corn (Zea mays); [21],0
same,"Plant response rating, Corn",corn (Zea mays); [22],0
same,"Plant response rating (scale 0 to 100), Galium","[6]; Postemergence, 16 g ai/ha",70
same,Galium plant response rating,[6]; [17],80
same,"Plant response rating, Galium",[6]; [18],70
same,"Plant response rating, Galium",[6]; [19],75
same,"Plant response rating (scale 0 to 100), Galium","[6]; Preemergence, 125 g ai/ha",98
same,"Plant response rating, Galium",[6]; [20],90
same,"Plant response rating, Galium",[6]; [21],90
same,"Plant response rating, Galium",[6]; [22],90
same,"Plant response rating (scale 0 to 100), Foxtail, Giant","[7]; Postemergence, 16 g ai/ha",5
same,"Foxtail, Giant plant response rating",[7]; [17],5
same,"Plant response rating, Foxtail, Giant",[7]; [18],40
same,"Plant response rating, Foxtail, Giant",[7]; [19],30
same,"Plant response rating (scale 0 to 100), Foxtail, Giant","[7]; Preemergence, 125 g ai/ha",85
same,"Plant response rating, Foxtail, Giant",[7]; [20],5
same,"Plant response rating, Foxtail, Giant",[7]; [21],30
same,"Plant response rating, Foxtail, Giant",[7]; [22],85
same,"Plant response rating (scale 0 to 100), Crabgrass, Large","[8]; Postemergence, 16 g ai/ha",5
same,"Crabgrass, Large plant response rating",[8]; [17],5
same,"Plant response rating, Crabgrass, Large",[8]; [18],5
same,"Plant response rating, Crabgrass, Large",[8]; [19],5
same,"Plant response rating (scale 0 to 100), Crabgrass, Large","[8]; Preemergence, 125 g ai/ha",100
same,"Plant response rating, Crabgrass, Large",[8]; [20],10
same,"Plant response rating, Crabgrass, Large",[8]; [21],65
same,"Plant response rating, Crabgrass, Large",[8]; [22],75
same,"Plant response rating (scale 0 to 100), Oilseed Rape","[9]; Postemergence, 16 g ai/ha",40
same,Oilseed Rape plant response rating,[9]; [17],75
same,Oilseed Rape plant response rating,[9]; [18],85
same,"Plant response rating, Oilseed Rape",[9]; [19],100
same,"Plant response rating (scale 0 to 100), Oilseed Rape","[9]; Preemergence, 125 g ai/ha",100
same,"Plant response rating, Oilseed Rape",[9]; [20],30
same,"Plant response rating, Oilseed Rape",[9]; [21],95
same,"Plant response rating (scale 0 to 100), Pigweed","[10]; Postemergence, 16 g ai/ha",80
same,Pigweed plant response rating,[10]; [17],90
same,Pigweed plant response rating,[10]; [18],98
same,"Plant response rating, Pigweed",[10]; [19],98
same,"Plant response rating (scale 0 to 100), Pigweed","[10]; Preemergence, 125 g ai/ha",100
same,"Plant response rating, Pigweed",[10]; [20],30
same,"Plant response rating, Pigweed",[10]; [21],100
same,"Plant response rating, Pigweed",[10]; [22],100
same,"Plant response rating (scale 0 to 100), Ragweed","[11]; Postemergence, 16 g ai/ha",30
same,Ragweed plant response rating,[11]; [17],25
same,Ragweed plant response rating,[11]; [18],50
same,"Plant response rating, Ragweed",[11]; [19],60
same,"Plant response rating (scale 0 to 100), Ragweed","[11]; Preemergence, 125 g ai/ha",60
same,"Plant response rating, Ragweed",[11]; [20],25
same,"Plant response rating, Ragweed",[11]; [21],30
same,"Plant response rating, Ragweed",[11]; [22],40
same,"Plant response rating (scale 0 to 100), Nutsedge, Yellow","[12]; Postemergence, 16 g ai/ha",5
same,"Nutsedge, Yellow plant response rating",[12]; [17],5
same,"Nutsedge, Yellow plant response rating",[12]; [18],5
same,"Plant response rating, Nutsedge, Yellow",[12]; [19],5
same,"Plant response rating (scale 0 to 100), Nutsedge, Yellow","[12]; Preemergence, 125 g ai/ha",25
same,"Plant response rating, Nutsedge, Yellow",[12]; [20],0
same,"Plant response rating, Nutsedge, Yellow",[12]; [21],0
same,"Plant response rating, Nutsedge, Yellow",[12]; [22],0
